In assay [1] the target is dopamine transporter (DAT) (Rattus norvegicus, UniProt P23977). Description: Inhibition of [3H]DA uptake by DAT in rat striatum. The format is biochemical.
In assay [2] the target is serotonin transporter (SERT) (Rattus norvegicus, UniProt P31652). Description: Inhibition of [3H]5-HT uptake by SERT in rat cerebral cortex. Type of assay: biochemical.
In assay [3] the target is norepinephrine transporter (NET) (Rattus norvegicus, UniProt Q63380). Description: Inhibition of [3H]DA uptake by NET in rat cerebral cortex.
norepinephrine transporter (NET), sequence (Q63380 1-617): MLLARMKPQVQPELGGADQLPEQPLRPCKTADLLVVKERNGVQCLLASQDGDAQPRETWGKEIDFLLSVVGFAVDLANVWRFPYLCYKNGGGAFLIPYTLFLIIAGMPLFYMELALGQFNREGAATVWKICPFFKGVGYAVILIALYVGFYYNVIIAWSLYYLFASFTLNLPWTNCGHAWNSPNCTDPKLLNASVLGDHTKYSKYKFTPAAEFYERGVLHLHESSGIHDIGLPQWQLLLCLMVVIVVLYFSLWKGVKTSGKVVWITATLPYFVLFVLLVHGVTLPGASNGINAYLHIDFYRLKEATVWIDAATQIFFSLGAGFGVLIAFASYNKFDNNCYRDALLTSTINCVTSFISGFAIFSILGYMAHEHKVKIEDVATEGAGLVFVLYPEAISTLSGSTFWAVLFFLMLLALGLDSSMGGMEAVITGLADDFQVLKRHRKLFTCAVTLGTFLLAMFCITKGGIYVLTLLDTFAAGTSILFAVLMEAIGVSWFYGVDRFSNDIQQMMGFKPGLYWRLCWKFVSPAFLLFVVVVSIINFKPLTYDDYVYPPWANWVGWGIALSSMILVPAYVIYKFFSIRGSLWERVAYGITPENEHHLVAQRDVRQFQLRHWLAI

Data on two compounds can be found in publication PMC3913050 (Bioorganic & medicinal chemistry, 2013).

dopamine transporter (DAT), sequence (P23977 whole entry): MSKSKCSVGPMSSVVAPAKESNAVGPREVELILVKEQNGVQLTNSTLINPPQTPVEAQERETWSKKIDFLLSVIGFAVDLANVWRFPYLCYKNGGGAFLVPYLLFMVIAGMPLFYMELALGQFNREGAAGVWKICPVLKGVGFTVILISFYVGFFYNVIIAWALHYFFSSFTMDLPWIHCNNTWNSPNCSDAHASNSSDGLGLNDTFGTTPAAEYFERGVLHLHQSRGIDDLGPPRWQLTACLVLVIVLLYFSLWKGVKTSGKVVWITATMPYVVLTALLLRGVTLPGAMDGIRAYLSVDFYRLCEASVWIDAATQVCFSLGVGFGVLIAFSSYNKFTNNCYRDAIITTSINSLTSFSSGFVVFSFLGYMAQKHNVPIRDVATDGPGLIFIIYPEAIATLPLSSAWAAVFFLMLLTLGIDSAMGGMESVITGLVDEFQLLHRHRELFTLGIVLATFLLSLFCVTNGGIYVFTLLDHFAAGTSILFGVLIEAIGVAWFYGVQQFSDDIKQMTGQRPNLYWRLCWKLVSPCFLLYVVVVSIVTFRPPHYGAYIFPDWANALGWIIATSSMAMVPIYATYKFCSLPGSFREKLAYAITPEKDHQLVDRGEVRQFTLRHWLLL
serotonin transporter (SERT), sequence (P31652 whole entry): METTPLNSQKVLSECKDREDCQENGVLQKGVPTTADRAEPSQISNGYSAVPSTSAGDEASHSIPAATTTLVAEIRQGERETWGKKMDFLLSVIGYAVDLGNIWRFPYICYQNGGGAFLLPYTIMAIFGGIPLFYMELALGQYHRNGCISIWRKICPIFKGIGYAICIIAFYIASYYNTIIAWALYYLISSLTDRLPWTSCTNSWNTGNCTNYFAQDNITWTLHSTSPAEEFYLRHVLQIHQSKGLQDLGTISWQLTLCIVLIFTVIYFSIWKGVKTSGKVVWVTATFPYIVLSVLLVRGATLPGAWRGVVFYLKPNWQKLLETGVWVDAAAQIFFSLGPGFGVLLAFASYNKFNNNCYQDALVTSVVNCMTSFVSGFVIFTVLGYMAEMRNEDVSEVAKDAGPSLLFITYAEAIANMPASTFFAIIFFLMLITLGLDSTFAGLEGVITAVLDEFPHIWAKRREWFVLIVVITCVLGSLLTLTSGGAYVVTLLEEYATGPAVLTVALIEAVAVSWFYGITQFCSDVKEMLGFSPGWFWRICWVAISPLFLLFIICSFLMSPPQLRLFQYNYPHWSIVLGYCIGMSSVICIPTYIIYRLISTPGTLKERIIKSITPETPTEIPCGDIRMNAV

On to “3-((((3S,5S)-5-benzhydryltetrahydrofuran-3-yl)amino)methyl)phenol [compound 40]”, for which the Ki was found to be 0.94 µM in assay [1] (read-out: Ki uptake inhibition, DAT, text value in µM); 1.15 µM in assay [2] (read-out: Ki uptake inhibition, SERT, text value in µM); 1.51 µM in assay [3] (read-out: Ki uptake inhibition, NET, text value in µM).

In the case of `c1ccc(CCN[C@@H]2CO[C@H](C(c3ccccc3)c3ccccc3)C2)cc1` [compound 44, (3S,5S)-5-benzhydryl-N-phenethyltetrahydrofuran-3-amine], the “activity against DAT (in words)” value in assay [1] (uptake inhibition) is “weak activity”. Also, the “activity against SERT (in words)” value in assay [2] (uptake inhibition) is “inactive”. Besides, the “activity against NET (in words)” value in assay [3] (uptake inhibition) is on record as “weak activity”.

In general, Ki refers to the equilibrium dissociation constant of an inhibitor or competing ligand from its target.
